Test results reported in patent US20110177014A1, “EXTRACTS FROM PLANTS OF THE TSUGA GENUS AND USES THEREOF IN THE TREATMENT OF INFLAMMATION, IRRITATION AND/OR INFECTION” (BIOPHARMACOPAE DESIGN INTERNATIONAL INC., priority 2008, published 2011).

Assays:
Format in all cases: cell-based
HUVECs = assay: Cord formation assay on Matrigel (angiogenesis); settings: Homo sapiens, HUVEC
Experimental: 60 μl Matrigel® was added to a 96-well plate flat bottom plate (Costar 3096) and incubated for 30 minutes at 37° C. in a 5% CO2 atmosphere. A mixture of HUVECs and Tsuga extract, or a positive control (Fumagillin or GM6001) were added to each well. HUVECs were prepared as suspensions of 2.5×10^5 cells per ml in EGM-2, then 500 μl of HUVECs preparation was mixed with 500 μl of 2× of the desired dilution of Tsuga extract or control drug and 200 μl were added to each well. Four dilutions of each extract were tested in duplicate. After 18-24 hours at 37° C. in 5% CO2, the cells had migrated and organized into cords. The number of cell junctions was counted in 3 randomly selected fields and the inhibition of cord formation is calculated as follows: [(A−B)/A]×100, where A is the average number of cell junctions per field in the control well and B is the average number of cell junctions per field in the treated wells.

human skin fibroblasts = assay: Inhibition of contractile force of fibroblasts in collagen I gel; settings: Skin fibroblast, read-out: inhibition of tractional force of fibroblasts
Source text: The skin model comprises human skin fibroblasts imbedded in a collagen I matrix and provides an in vitro representation of dermal contraction resulting from tractional forces generated by fibroblasts. Partial or permanent dermal contraction can play a role in the formation of wrinkles. Thus, extracts capable of inhibiting the contractile force of fibroblasts, have the potential to provide a dermo-decontraction anti-ageing effect in the skin.
The ability of the Tsuga extracts to inhibit the contractile force of fibroblasts was evaluated on human skin fibroblasts (Cascade Biologics, Portland, Oreg.). The cells were imbedded in a collagen I matrix to create a derm-like environment. Fibroblasts were grown in complete M106 to 80% confluence. Free-floating fibroblast-populated collagen gels were prepared in 24-well plates. 500 μl of gel contains 2.5 mg/ml of collagen I (rat tail, BD Biosciences, Bedford, Mass.), M106 5X, NaOH 0.7N; 1×10^5 cells and fetal bovine serum (FBS) at 20% (Wisent, St-Bruno, QC, Canada). The mix was kept on ice until distribution. The derm-like gels were allowed to polymerize for 1 hour at 37° C. in a humidified 5% CO2 atmosphere. After incubation, the gels were detached from the wells. […] Contraction was measured beginning at day 5. Contracting gels were digitally photographed and the gel areas were calculated using ImagePro software.

human skin keratinocytes [1] = assay: IL-8 release from keratinocytes (irritation potential), ELISA; settings: 5 μM; basal level 18 pg/ml
Experimental: This example provides results showing the non-irritating quality of the Tsuga extracts. The amount of interleukin-8 (IL-8) released in the following assay is used to quantify a possible irritating reaction after exposure of keratinocytes to the Tsuga extract.
Release of IL-8 was evaluated on human skin keratinocytes (Cascade Biologics, Portland, Oreg., catalog number C-005) and measured using the Quantikine hIL8 ELISA kit (R&D Systems, Minneapolis, Minn., catalog number D8000C). Keratinocytes were first grown in a 96-well plate using complete medium M154 (M154+HKGS cat S-001 from Cascade Biologics). This medium was used as a negative (non-irritating) control, while 2.5 μM phorbol 12-myristate 13-acetate (PMA) (Sigma-Aldrich Canada, Oakville, Ontario) was used as a positive (irritating) control. All extracts and controls were diluted in complete medium M154. Cells were seeded into 96-well plates at a concentration of 8×10^3 cells/well in complete M154 medium and plates were incubated for 48 hours at 37° C. in a humidified 5% CO2 atmosphere. The medium was removed and 200 μl of Tsuga extract or control were added to the wells (all performed in duplicate) and then the plates were incubated for 48 hours at 37° C. in a humidified 5% CO2 atmosphere. […] The absorbance was read at 450 nm on the Spectrafluor Plus plate reader (Tecan). […]

human skin keratinocytes [2] = assay: UVA-induced IL-1 release in keratinocytes, ELISA; settings: UVA 20 J/cm^2
Experimental: This example provides results showing the anti-inflammatory effect of Tsuga extracts when inflammation is induced in keratinocytes. The amount of interleukin-1 alpha (IL-1) released is used to quantify the inflammatory reaction after exposure of the keratinocytes to UVA light irradiation. IL-1 release was evaluated in human skin keratinocytes (Cascade Biologics, Portland, Oreg.) and was measured using the Quantikine hIL1 ELISA kit (R&D Systems, Minneapolis, Minn.). Keratinocytes were first grown in a 96-well plate using complete […] medium with different concentrations of extracts for 48 hours at 37° C. in a humidified 5% CO2 atmosphere. All extracts and controls were diluted in complete […] medium. Cells were rinsed with HBSS and irradiated with UVA at 20 J/cm^2. HBSS was removed and complete […] medium containing controls or extracts was added to respective wells. Plates were incubated for another 24 hours. ELISA was performed following the manufacturer's recommendations (R&D Systems). The absorbance was read at 450 nm on the Spectrafluor Plus plate reader (Tecan). […] The inhibition of IL-1 release is proportional to the anti-inflammatory effect.

For `CNC(=O)[C@H](Cc1c[nH]c2ccccc12)NC(=O)[C@@H](CC(=O)NO)CC(C)C` [GM6001], the inhibition at 25 µM (HUVECs; 25 μM) was 78% and the inhibition at 50 µM (human skin fibroblasts) was 85%.

With `CO[C@@H]1[C@H](OC(=O)/C=C/C=C/C=C/C=C/C(=O)O)CC[C@]2(CO2)[C@H]1[C@@]1(C)O[C@@H]1CC=C(C)C` [Fumagillin] the inhibition at 15 µg/mL (HUVECs; 15 μg/ml) was 100%.

In the case of `CCCCCCCCCCCCCC(=O)O[C@@H]1[C@@H](C)[C@@]2(O)[C@@H](C=C(CO)C[C@]3(O)C(=O)C(C)=C[C@@H]23)[C@@H]2C(C)(C)[C@]12OC(C)=O` [PMA, phorbol 12-myristate 13-acetate], the IL-8 release (human skin keratinocytes [1]) is reported as 282 pg/mL.

`O=C(O)c1ccccc1O` [salicylic acid] was tested, and the “inhibition of IL-1 release” value (human skin keratinocytes [2]; 0.025%) was 11% and the “inhibition of IL-1 release” value (human skin keratinocytes [2]; 0.05%) was 27%.
